In series [1] the test system is S. epidermidis strain 9142. As to the kind of experiment: Biofilm determination, crystal violet, S. epidermidis. Format: cell-based, Staphylococcus epidermidis. How it is done:
Staphylococcal strains were cultured overnight in TSB at 37° C. with shaking, diluted in fresh medium to an OD600 of 0.01 and 200 W was dispensed into sterile flat bottom polystyrene 96 well microtiter plates (Costar 3596, Corning Inc.). […] Each compound and dilution was tested in triplicate. The plates were incubated overnight at 37° C. in a humidified incubator, without shaking and both growth and biofilm accumulation were determined at 16 h.
Following recording of turbidities, the culture medium was aspirated and the wells were washed three times with distilled water, blotted on paper towels, and fixed with 75% ethanol for 10 minutes.
To visualize biofilm material, 0.5% crystal violet was added to each well and after 5 minutes was removed and the wells washed three times with distilled water. Plates were read using a microplate reader at a wavelength of 570 nm. The dye was then extracted by adding 200 W of 95% ethanol, and the absorbance was read again at 570 nm. All assays were performed in triplicate and the mean and standard deviation determined. Generally, the ethanol-solubilized crystal violet was more reliable and these determinations are reported throughout.

Series [2] has as its system EAEC JM221 (Type 1 fimbriae). Nature of the series: Hemagglutination of guinea pig erythrocytes, EAEC JM221. Note: key: +++ = strong hemagglutination reaction; + weak; − no hemagglutination. Format: cell-based, Escherichia coli. The following applies: EAEC JM221 grown statically in LB 48 h with 20 μg/ml NTZ. How it is done:
HA assays were performed in 96-well microplates as described in (1). Bacteria grown over night without shaking (MinA-G medium with and without 25 μg/ml NTZ) were suspended in PBS and diluted to OD660 of […] was mixed with an equal volume of 3% (vol/vol) sheep erythrocyte suspension containing 1% mannose, except when type I fimbriae producing strains were assayed. In the latter, bacteria were grown statically in LB medium (with and without NTZ) for 48 h and HA was determined with guinea pig erythrocytes. HA reactions were incubated at 4° C. for […] HA was determined visually against controls receiving no NTZ. All assays were prepared in triplicate and repeated twice.

Series [3] is described as follows: Zn2+ chelation, spectrophotometric and 1H NMR. Format: physicochemical. The following applies: 1H NMR in DMSO-d6, ratios 1:1, 1:2, 2:1, up to 72 h. How it is done: To test direct binding of Zn^2+ by NTZ in solution, we tested a range of concentrations of both NTZ and TIZ and scanned the solutions spectrophotometrically using an OLIS Cary-14 (OLIS Instruments Co., Bogart Ga.). Absolute spectra were recorded over a UV/Vis range from 220 nm to 700 nm. Spectral shifts in the 418 nm range would be attributable to changes in resonance within the thiazole ring that would result if Zn^2+ were coordinated by NTZ (9).
Chelation experiments were also performed utilizing NTZ and TIZ in DMSO-d6 (0.5 mL) with ZnCl2 using a 300 MHz Varian MercuryPlus spectrometer. Specifically, three ratios of NTZ to Zn^2+ were investigated (1:1, 1:2, 2:1) where NTZ was held constant (4 mg, 13 μmoles) while varying ZnCl2 (1.8 mg, 13 μmoles or 3.5 mg, 26 μmoles) or NTZ (8 mg, 26 μmoles) with ZnCl2 (1.8 mg, 13 μmoles). Three ratios of TIZ to Zn^2+ were also investigated (1:1, 1:2, 2:1) where TIZ was held constant (4 mg, 15 μmoles) while varying ZnCl2 (2.1 mg, 15 μmoles or 4.1 mg, 30 μmoles) or TIZ (8 mg, 30 μmoles) with ZnCl2 (2.1 mg, 15 μmoles). ^1H NMR spectra were then obtained after mixing for 5 min, 24 h, 48 h, and 72 h at room temperature. Any chelation event would be evidenced by shifting or broadening of the thiazole and benzene protons as well as loss of the amide proton.

Series [4] relates to E. coli biofilm. As to the kind of experiment: E. coli biofilm assay (activity tables). Format: cell-based, Escherichia coli. An outline of the steps:
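E. coli strain 042 inoculated 1:100 with NTZ-containing medium and grown statically at 37 °C for 24 h. Growth measured by turbidity or plate counts (cfu/ml); biofilm stained with 0.5% crystal violet and read at 570 nm; triplicate, mean ± SD.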

For series [5], the system named is S. epidermidis strain 9142. Nature of the series: Effect of zinc on the action of NTZ (biofilm and MIC). The following applies: zinc 20 μM, read at 8 h. Format: cell-based, Staphylococcus epidermidis. On the procedure: […] As a control, ZnCl2 was added to untreated bacteria. Additional controls included testing of 10 μM CaCl2 and MgCl2 in the same format. The inhibitory effect of EDTA on biofilm production and its reversibility by Zn^2+ was also assessed as described for NTZ.

For series [6] the following is noted: reference (9); cited from earlier work.

In brackets after ≈: the same amount, converted by molar mass. Several values for one entry are separate records, joined by “and”; a condition that tells them apart may be missing. Equal entries are not always repeated. Where two headings read alike, the source gives them in different places.

The text below walks through data of patent US8835644B2, “Broad spectrum benzothiophene-nitrothiazolide and other antimicrobials” (University of Virginia Patent Foundation, priority 2009, dated 2014).

`CC(=O)Oc1ccccc1C(=O)Nc1ncc([N+](=O)[O-])s1` [Nitazoxanide, 2-(acetyloxy)-N-(5-nitro-2-thiazolyl)benzamide, reference compound]: the IC50 biofilm production in series [1] (S. epidermidis strain 9142, crystal violet, listed as NTZ) is 4 µg/mL (≈ 13 µM). The half-inhibitory concentration (IC50) was 2.5 µg/mL and ~8 µM in series [1] (Staphylococcus epidermidis, 9142, S. epidermidis strain 9142, crystal violet, read-out: IC50 biofilm production); 2.5 to 5 µg/mL (≈ 8.14 to 16.3 µM) in series [1] (Staphylococcus epidermidis, 9142, clinical S. epidermidis isolates and strain 5179-R1, read-out: IC50 biofilm formation, all strains tested). For the same molecule, in series [1] (static (microaerobic) growth, 15 μg/ml), the “Biofilm accumulation on the bottom of flasks” value was “completely ablated”. Also, the “HA (guinea pig erythrocytes), bacterial OD660 0.5” value in series [2] was “−”. Besides, in series [2], the “HA (guinea pig erythrocytes), bacterial OD660 1.0” value is on record as “−”. In addition, in series [2], the “HA (guinea pig erythrocytes), bacterial OD660 1.5” value is on record as “+”. In series [3], the “Chelation with ZnCl2” value is reported as “No chelation”. Also, the MIC was 26 µM (≈ 7.99 µg/mL) in series [4] (Escherichia coli, biofilm, Furan analogues table, read-out: MIC E. coli Biofilm); 26 µM (≈ 7.99 µg/mL) in series [4] (Escherichia coli, read-out: MIC (μM) E. coli Biofilm); 26.0 µM (≈ 7.99 µg/mL) in series [4] (biofilm, 2-amino-3,5-dinitrothiophene analogues table, read-out: MIC E. coli Biofilm); 26.0 µM (≈ 7.99 µg/mL) in series [4] (biofilm, Thiophene analogues table, read-out: MIC E. coli Biofilm). The “Effect of Zn2+ on the growth inhibitory action (MIC)” value in series [5] is “no effect”. Moreover, in series [6], the pKa is given as 6.2.

As a reminder, the IC50 is the concentration needed to halve the response being measured. The pKa is the pH at which an ionisable group is half protonated.
